The source of these data is patent US20090054392A1, “NAPHTHYLPYRIMIDINE, NAPHTHYLPYRAZINE AND NAPHTHYLPYRIDAZINE ANALOGS AND THEIR USE AS AGONISTS OF THE WNT-BETA-CATENIN CELLULAR MESSAGING SYSTEM” (Wyeth, priority 2007, published 2009).

pEC50: −log10 of the molar value.

In the series the test system is Dkk1-LRP5-TCF-Luciferase. As to the kind of experiment: Functional Dkk1-LRP5-TCF-Luciferase Assay in U2OS Cells. The settings on record: for pEC50 / fold induction at 2 µM / fold induction at 20 µM: Homo sapiens, U2OS; for fold induction at 2 µM: read-out: B = TCF ACTIVITY/DMSO CONTROL Fold induction @ 2.0 uM, 2.0 uM compound; for fold induction at 20 µM: read-out: C = TCF ACTIVITY/DMSO CONTROL Fold induction @ 20.0 uM, 20.0 uM compound; for A = MAX FOLD Induction/DMSO CONTROL: maximum fold induction over DMSO control.

What is called pEC50 is the EC50 on a negative log10 scale, so that one unit is a factor of ten. Higher therefore signals a low EC50.

Protocol: Biological Evaluation—Functional Dkk1-LRP5-TCF-Luciferase Assay in U2OS Cells
Frozen U2OS-Dkk1-HTS Reporter cells generation: U2OS Human Bone derived cells (Osteosarcoma) are grown in McCoy's 5A Medium (Modified), with L -glutamine (GIBCO Cat No. 16600-082)+1% Pen-Strep+5% FBS) plated at 1×10^7 cells/T175 cm flask. The next day, the cells are co-transfected overnight with the following plasmids: (a) Test reporter (16×TCF-TK-FireFly-Luci), (b) Internal Control Reporter (TK-Renilla-Luci), (c) Wnt3a and (d) Dkk1. GIBCO's Lipofectamine 2000 and OptiMEM are used for the transfection. After a minimum of 4 hr of transfection at 37° C., the plasmid-transfected cells are trypsinized, counted, and suspended in freezing medium (95% FBS+5% DMSO). The reporter cells are frozen at 1×10^7/ml concentrations, aliquoted into 0.5 ml or 2.5 ml/tube and stored at 70° C.
The following day, test compounds are added under HTS setup by Plate Track into 384 well plates (white, TC treated, Falcon plate) such that the final concentration of the compounds in 20 μL/well cell will be 5 μg/ml (final concentration of DMSO=0.25% and final compound concentration=20 μM). Vials of frozen reporter cells are thawed by warming the vial in a 37° C. water bath for 60-120 seconds with some shaking until the cells formed a suspension. The thawed cells are transferred into a cold 50 ml (or larger) tube and mixed well by gentle pipetting. The appropriate amount of cold Phenol Red Free RPMI medium-1640 (GIBCO, Cat #11835-030) with L-glutamine is added, both with ˜5% FBS (GIBCO-BRL, Cat. #16000-044), so that 20 μl of the final cell suspension will contain ˜5,000 cells. The cell dilution is done such that the final concentration of FBS is ˜5%.
Diluted cells (20 μl) are added into each well in a 384 well plate. The plate is incubated at 37° C. under 5% CO2 for ˜20 h. Bright-Glo substrate, 2.5 μl/well is added, and the Fire Fly Luciferase is measured using VLUX (60 second exposure) immediately after the substrate is added. Test compounds are dissolved in DMSO (100%) and added to specified wells. Raw luciferase signal data obtained as relative luminescence units (RLUs) for the test compounds are normalized to the signal of the mean of the sample reporter cell plate with DMSO.

Regarding `NCC1CCN(c2ccnc(-c3ccc4ccccc4c3)n2)CC1` [1-{1-[2-(2-naphthyl)pyrimidin-4-yl]piperidin-4-yl}methanamine], the pEC50 was 6.10, the fold induction at 2 µM was found to be 3.22, the fold induction at 20 µM worked out at 0.003 and the “A = MAX FOLD Induction/DMSO CONTROL” value is given as 5.673 fold.

For `NCC1CCN(c2nccc(-c3ccc4ccccc4c3)n2)c2ccccc21` (centres unmarked) [1-{1-[4-(2-naphthyl)pyrimidin-2-yl]-1,2,3,4-tetrahydroquinolin-4-yl}methanamine], the “A = MAX FOLD Induction/DMSO CONTROL” value was 1.820 fold.

Consider `NCC1CN(c2nccc(-c3ccc4ccccc4c3)n2)C1` [1-{1-[4-(2-naphthyl)pyrimidin-2-yl]azetidin-3-yl}methanamine], for which the pEC50 is 4.64, the fold induction at 2 µM was determined as 2.56, the fold induction at 20 µM was found to be 0.71 and the “A = MAX FOLD Induction/DMSO CONTROL” value is 3.080 fold.

For the compound `O=c1[nH]c2ccccc2n1C1CCN(c2nccc(-c3ccc4ccccc4c3)n2)CC1` [1-{1-[4-(2-naphthyl)pyrimidin-2-yl]piperidin-4-yl}-1,3-dihydro-2H-benzimidazol-2-one], the fold induction at 2 µM was 1.03 and the fold induction at 20 µM came to 0.01.

Take `CC(N)C1CCN(c2nccc(-c3ccc4ccccc4c3)n2)CC1` (centres unmarked) [1-{1-[4-(2-naphthyl)pyrimidin-2-yl]piperidin-4-yl}ethanamine]: the pEC50 is 5.96, the fold induction at 2 µM amounted to 2.33, the fold induction at 20 µM turned out to be 0.006 and the “A = MAX FOLD Induction/DMSO CONTROL” value is given as 2.891 fold.

In the case of `NCC1CCN(c2nccc(-c3ccc4ccccc4c3)n2)C1` (centres unmarked) [1-{1-[4-(2-naphthyl)pyrimidin-2-yl]pyrrolidin-3-yl}methanamine], the pEC50 is 5.65, the fold induction at 2 µM worked out at 4.53, the fold induction at 20 µM stood at 0.01 and the “A = MAX FOLD Induction/DMSO CONTROL” value is reported as 4.063 fold.

`CC(C)COc1ccc2cc(-c3ccnc(N4CCC(CN)CC4)n3)ccc2c1` [1-{1-[4-(6-isobutoxy-2-naphthyl)pyrimidin-2-yl]piperidin-4-yl}methanamine]: the fold induction at 2 µM was determined as 1.54.

As to `COc1ccc2cc(-c3ccnc(N4CCC(CN)CC4)n3)ccc2c1` [1-{1-[4-(6-methoxy-2-naphthyl)pyrimidin-2-yl]piperidin-4-yl}methanamine], the pEC50 is 5.97, the fold induction at 2 µM was 2.27 and the “A = MAX FOLD Induction/DMSO CONTROL” value amounted to 3.233 fold.

Turning to `Cc1ccc2cc(-c3ccnc(N4CCC(CN)CC4)n3)ccc2c1` [1-{1-[4-(6-methyl-2-naphthyl)pyrimidin-2-yl]piperidin-4-yl}methanamine], the pEC50 was 5.91, the fold induction at 2 µM was determined as 2.88 and the “A = MAX FOLD Induction/DMSO CONTROL” value was determined as 2.820 fold.

For the compound `NCC1CCN(c2nccc(-c3ccc4cc(-c5ccccc5)ccc4c3)n2)CC1` [1-{1-[4-(6-phenyl-2-naphthyl)pyrimidin-2-yl]piperidin-4-yl}methanamine], the fold induction at 2 µM is 1.63.

On to `CCCOc1ccc2cc(-c3ccnc(N4CCC(CN)CC4)n3)ccc2c1` [1-{1-[4-(6-propoxy-2-naphthyl)pyrimidin-2-yl]piperidin-4-yl}methanamine], for which the fold induction at 2 µM turned out to be 1.33.

With `C=Cc1ccc2cc(-c3ccnc(N4CCC(CN)CC4)n3)ccc2c1` [1-{1-[4-(6-vinyl-2-naphthyl)pyrimidin-2-yl]piperidin-4-yl}methanamine], the fold induction at 2 µM is 1.21.

On to `NCC1CCN(c2cc(-c3ccc4ccccc4c3)cnn2)CC1` [1-{1-[5-(2-naphthyl)pyridazin-3-yl]piperidin-4-yl}methanamine], for which the fold induction at 2 µM was found to be 1.58 and the fold induction at 20 µM amounted to 0.4.

Turning to `NCC1CCN(c2ncc(-c3ccc4ccccc4c3)cn2)CC1` [1-{1-[5-(2-naphthyl)pyrimidin-2-yl]piperidin-4-yl}methanamine], the pEC50 was 5.92, the fold induction at 2 µM worked out at 3.1 and the “A = MAX FOLD Induction/DMSO CONTROL” value is recorded as 2.900 fold.

For `NCC1CCN(c2cncc(-c3ccc4ccccc4c3)n2)CC1` [1-{1-[6-(2-naphthyl)pyrazin-2-yl]piperidin-4-yl}methanamine], the pEC50 was 5.94, the fold induction at 2 µM came out at 1.6 and the “A = MAX FOLD Induction/DMSO CONTROL” value was found to be 2.920 fold.

Regarding `NCC1CCN(c2cc(-c3ccc4ccccc4c3)ncn2)CC1` [1-{1-[6-(2-naphthyl)pyrimidin-4-yl]piperidin-4-yl}methanamine], the pEC50 is 5.80, the fold induction at 2 µM came to 2.79, the fold induction at 20 µM came to 1 and the “A = MAX FOLD Induction/DMSO CONTROL” value is 3.226 fold.

Take `NCc1ccc(-c2nccc(-c3ccc4ccccc4c3)n2)cc1` [1-{4-[4-(2-naphthyl)pyrimidin-2-yl]phenyl}methanamine]: the fold induction at 2 µM is 2.5.

With `NCC1CC2CCC(C1)N2c1nccc(-c2ccc3ccccc3c2)n1` (centres unmarked) [1-{8-[4-(2-naphthyl)pyrimidin-2-yl]-8-azabicyclo[3.2.1]oct-3-yl}methanamine], the pEC50 was 6.26 and the fold induction at 2 µM turned out to be 1.5.

In the case of `NC[C@@H]1C[C@@H]2C[C@H]1CN2c1nccc(-c2ccc3ccccc3c2)n1` [1-{(1R,4R,5R)-2-[4-(2-naphthyl)pyrimidin-2-yl]-2-azabicyclo[2.2.1]hept-5-yl}methanamine], the fold induction at 2 µM was found to be 1.4.

With `NC[C@H]1C[C@@H]2C[C@H]1CN2c1nccc(-c2ccc3ccccc3c2)n1` [1-{(1R,4R,5S)-2-[4-(2-naphthyl)pyrimidin-2-yl]-2-azabicyclo[2.2.1]hept-5-yl}methanamine], the fold induction at 2 µM worked out at 1.8.

Take `NC[C@@H]1C[C@H]2C[C@@H]1CN2c1nccc(-c2ccc3ccccc3c2)n1` [1-{(1S,4S,5R)-2-[4-(2-naphthyl)pyrimidin-2-yl]-2-azabicyclo[2.2.1]hept-5-yl}methanamine]: the fold induction at 2 µM was 1.1.

As to `NC[C@H]1C[C@H]2C[C@@H]1CN2c1nccc(-c2ccc3ccccc3c2)n1` [1-{(1S,4S,5S)-2-[4-(2-naphthyl)pyrimidin-2-yl]-2-azabicyclo[2.2.1]hept-5-yl}methanamine], the fold induction at 2 µM worked out at 1.2.

With `c1ccc2cc(-c3ccnc(N4CC[C@@H](N5CCCCCC5)C4)n3)ccc2c1` [1-{(3R)-1-[4-(2-naphthyl)pyrimidin-2-yl]pyrrolidin-3-yl}azepane], the fold induction at 2 µM was determined as 1.25 and the fold induction at 20 µM amounted to 1.3.

As to `OC1CCCN([C@@H]2CCN(c3nccc(-c4ccc5ccccc5c4)n3)C2)C1` (stereo partly drawn) [1-{(3R)-1-[4-(2-naphthyl)pyrimidin-2-yl]pyrrolidin-3-yl}piperidin-3-ol], the pEC50 is 5.44, the fold induction at 2 µM came out at 2.06, the fold induction at 20 µM was found to be 1.05 and the “A = MAX FOLD Induction/DMSO CONTROL” value came out at 5.120 fold.

For `OC1CCN([C@@H]2CCN(c3nccc(-c4ccc5ccccc5c4)n3)C2)CC1` [1-{(3R)-1-[4-(2-naphthyl)pyrimidin-2-yl]pyrrolidin-3-yl}piperidin-4-ol], the fold induction at 2 µM amounted to 1.44 and the fold induction at 20 µM was 0.14.

On to `c1ccc2cc(-c3ccnc(N4CC[C@H](N5CCCCCC5)C4)n3)ccc2c1` [1-{(3S)-1-[4-(2-naphthyl)pyrimidin-2-yl]pyrrolidin-3-yl}azepane], for which the fold induction at 2 µM turned out to be 3.97 and the “A = MAX FOLD Induction/DMSO CONTROL” value is 3.220 fold.

As for `OC1CCCN([C@H]2CCN(c3nccc(-c4ccc5ccccc5c4)n3)C2)C1` (stereo partly drawn) [1-{(3S)-1-[4-(2-naphthyl)pyrimidin-2-yl]pyrrolidin-3-yl}piperidin-3-ol], the pEC50 is 5.45, the fold induction at 2 µM came to 2.48, the fold induction at 20 µM turned out to be 0.13 and the “A = MAX FOLD Induction/DMSO CONTROL” value was 6.735 fold.

As to `OC1CCN([C@H]2CCN(c3nccc(-c4ccc5ccccc5c4)n3)C2)CC1` [1-{(3S)-1-[4-(2-naphthyl)pyrimidin-2-yl]pyrrolidin-3-yl}piperidin-4-ol], the fold induction at 2 µM amounted to 1.31 and the fold induction at 20 µM worked out at 0.26.

Take `NC[C@@H]1CCCN(c2nccc(-c3ccc4ccccc4c3)n2)CC1` [1-{(4R)-1-[4-(2-naphthyl)pyrimidin-2-yl]azepan-4-yl}methanamine]: the pEC50 is 5.92, the fold induction at 2 µM was found to be 2.66 and the “A = MAX FOLD Induction/DMSO CONTROL” value is given as 3.950 fold.

Take `NC[C@H]1CCCN(c2nccc(-c3ccc4ccccc4c3)n2)CC1` [1-{(4S)-1-[4-(2-naphthyl)pyrimidin-2-yl]azepan-4-yl}methanamine]: the pEC50 was 5.97, the fold induction at 2 µM is 3.86 and the “A = MAX FOLD Induction/DMSO CONTROL” value amounted to 3.640 fold.

As for `NC[C@H]1CC[C@@H](c2nccc(-c3ccc4ccccc4c3)n2)CC1` [1-{cis-4-[4-(2-naphthyl)pyrimidin-2-yl]cyclohexyl}methanamine], the fold induction at 2 µM came out at 3.4.

On to `NC[C@H]1CC[C@@H](Oc2nccc(-c3ccc4ccccc4c3)n2)CC1` [1-{cis-4-[(4-naphthalen-2-ylpyrimidin-2-yl)oxy]cyclohexyl}methanamine], for which the fold induction at 2 µM turned out to be 4.2.

For `O=C(NCCC1CCN(c2nccc(-c3ccc4ccccc4c3)n2)CC1)C(F)(F)F` [2,2,2-trifluoro-N-(2-{1-[4-(2-naphthyl)pyrimidin-2-yl]piperidin-4-yl}ethyl)acetamide], the fold induction at 2 µM stood at 1.77 and the fold induction at 20 µM was 1.04.

Regarding `O=C(NCC[C@H]1CCCN1c1nccc(-c2ccc3ccccc3c2)n1)C(F)(F)F` [2,2,2-trifluoro-N-(2-{(2R)-1-[4-(2-naphthyl)pyrimidin-2-yl]pyrrolidin-2-yl}ethyl)acetamide], the pEC50 was 5.92, the fold induction at 2 µM is 0.84, the fold induction at 20 µM was determined as 2.3 and the “A = MAX FOLD Induction/DMSO CONTROL” value was found to be 1.535 fold.

As to `O=C(NCC[C@@H]1CCCN1c1nccc(-c2ccc3ccccc3c2)n1)C(F)(F)F` [2,2,2-trifluoro-N-(2-{(2S)-1-[4-(2-naphthyl)pyrimidin-2-yl]pyrrolidin-2-yl}ethyl)acetamide], the fold induction at 2 µM came out at 1.44 and the fold induction at 20 µM is 0.89.
